Measured values reported in patent publication US20120270864A1, “2-QUINOLINONE AND 2-QUINOXALINONE-DERIVATIVES AND THEIR USE AS ANTIBACTERIAL AGENTS” (ASTRAZENECA AB, priority 2006, published 2012).
≈ marks a conversion by molar mass, not a printed value.

Legend:
Assay type in all cases: cell-based
[1] = system: Staphylococcus aureus (Sau) 516 cells; test: Bacterial Susceptibility Testing Methods 2 (microbroth dilution, growth inhibition); conditions: Staphylococcus aureus, Tested Concentration 8 μg/mL; Staphylococcus aureus 516 cell growth suppressed compared to untreated sample
Text: Compounds may be tested for antimicrobial activity by susceptibility testing using microbroth dilution methods recommended by CSLI. Compounds may be dissolved in dimethylsulfoxide and tested in 10 doubling dilutions in the susceptibility assays such that the final dimethylsulfoxide concentration in the assay is 2% (v/v). The Staphylococcus aureus (Sau) 516 cells used in the assay may be grown overnight on appropriate agar media and then suspended in the NCCLS-recommended liquid susceptibility-testing media. […] Plates may be incubated under appropriate conditions of atmosphere and temperature and for times according to NCCLS standard methods prior to being read. As used in Table 1 below, the term “inhibition” refers to the percentage of Staphylococcus aureus 516 cell growth that is suppressed (compared to an untreated sample) by the compound of the indicated example number. When tested in the above in-vitro assay, the compounds and salts of the example numbers listed below were tested at the indicated concentrations, providing the indicated inhibitions. In most instances, the highest concentrations at which the compounds were tested was 8 μg/mL. In some instances, however, compounds were tested at concentrations higher than 8 μg/mL, typically when the concentration was first measured in μM and was subsequently converted to μg/mL. In those cases in which compounds were tested at more than one concentration higher than 8 μg/mL, the concentration closest to 8 μg/mL is provided below.

Staphylococcus aureus = test: Bacterial Susceptibility Testing Methods 1 (MIC in liquid media, 96 well format); conditions: lowest drug concentration able to reduce growth by 80% or more, 37° C., 24 hours, read-out: MIC against Staphylococcus aureus
Text: Compounds may be tested for antimicrobial activity by susceptibility testing in liquid media in a 96 well format. Compounds may be dissolved in dimethylsulfoxide and tested in 10 doubling dilutions in the susceptibility assays. The organisms used in the assay may be grown overnight on suitable agar media and then suspended in a liquid medium appropriate for the growth of the organism. The suspension may be adjusted to be equal to a 0.5 McFarland and a further 1 in 10 dilution may be made into the same liquid medium to prepare the final organism suspension in 100 μL. Plates may be incubated under appropriate conditions at 37° C. for 24 hours prior to reading. The Minimum Inhibitory Concentration (MIC) was determined as the lowest drug concentration able to reduce growth by 80% or more.
Compounds were evaluated against a panel of Gram-positive species, including Staphylococcus aureus, Streptococcus pneumoniae, Streptococcus pyogenes, and Enterococcus faecium. In addition, compounds were evaluated against a panel of Gram-negative species including Haemophilus influenzae, Escherichia coli and Moraxella catarrhalis.

Escherichia coli = test: as above; conditions: lowest drug concentration able to reduce growth by 80% or more, 37° C., 24 hours, read-out: MIC against Escherichia coli

MIC (Staphylococcus aureus): 0.25 µg/mL (≈ 0.527 µM)
MIC (Escherichia coli): 0.5 µg/mL (≈ 1.05 µM)
Structure (SMILES): N#Cc1ccc2ccc(=O)n(CCN3CC[C@H](NCc4ccc5c(n4)NC(=O)CO5)[C@H](O)C3)c2c1 [Example 2, 1-[2-((3R,4S)-3-Hydroxy-4-{[(3-oxo-3,4-dihydro-2H-pyrido[3,2-b][1,4]oxazin-6-yl)methyl]amino}piperidin-1-yl)ethyl]-2-oxo-1,2-dihydro quino line-7-carbonitrile]
inhibition at 8 µg/mL [1]: 100%
